Reference: PMC11945201, “Enhancing the Oral Bioavailability of Glutathione Using Innovative Analogue Approaches” (Pharmaceutics, 2025)
Values after ≈ are worked out from the molar mass of the structure shown.

Tests used:
[1] = tested on: γ-glutamyl transferase (GGT); type: in vitro ADME, equine; conditions: horse, 100 μgmL^−1, pH 9
Experimental: Each compound and GSH (100 μgmL^−1, 0.0315 molL^−1) was added to each reaction vessel containing phosphate buffer solution (800 μL, pH 9.0). The reaction vessels were incubated at 37 °C with shaking for the entire duration of the experiment. Reaction was initiated by the addition of GGT enzyme solution (100 μL, 10 UmL^−1). […] The degradation rate of the novel compounds analysed by HPLC were compared with that of GSH. […] A GGT degradation less than 50% was considered resistance to GTT activity.

[2] = UV rescue of UVA-irradiated fibroblast cells (MTT); type: cell-based; conditions: peptide 0.0325 mmolL^−1, 24 h, no UV, mean ± SD, n = 6, read-out: % Cell Viability (no UV)
Experimental: Fibroblast cells were seeded into 96-well plates at a density of 10,000 cells per well determined by cell counting. Cells were allowed to settle and attach for 24 h before the addition of peptides. The supernatant in each well was discarded, and the attached cells were washed using serum-free DMEM twice. One group of cells was exposed to UVA under a UV lamp for 1 h. A second group of cells was not exposed to UV irradiation. The supernatant was removed from each well of both groups and replaced with peptide (100 μL, 0.0325 mmolL^−1), which was then dissolved in Fluorobite^TM DMEM. Each plate, including 2 wells of both groups was also incubated with serum-free DMEM (positive control) and 2% Triton-X (negative control) for 24 h. The supernatant in each well of both groups was then discarded and the cells washed using PBS. MTT (100 μL, 6 mmolL^−1) that was dissolved in HBSS was then added to each well and incubated for 2 h for MTT conversion into formazan. The supernatant was then discarded, and the cells were washed using PBS to remove any residual MTT and formazan that were not attached to the cellular mitochondria. Formazan was dissolved in DMSO (50 μL), and the absorbance was measured on a microplate reader at a wavelength of 570 nm.

[3] = Pharmacokinetic study after IV injection or oral gavage; type: in vivo, male Sprague Dawley rat; conditions: for AUC / bioavailability / half-life: male, plasma; for AUC / bioavailability: Sprague-Dawley; for AUC / half-life: 75 mg per rat; for AUC: AUC0-48, mean ± SD, n = 4; for bioavailability: rat, po, 75 mg; for half-life: read-out: plasma t½
Experimental: Pharmacokinetic studies were conducted using a male Sprague Dawley rat model. […] The animal experiments were performed in China, complying with the guide for care and use of laboratory animals. […] The collected blood samples were centrifuged at 7104× g for 5 min, and the plasma was stored at -70 °C until analysis. The plasma protein was precipitated by the addition of 1 mL of ACN, which was then vortexed for 1 min and centrifuged at 30,065× g for 15 min. […] The 1.70 concentration for each group (oral/IV) was determined using a modified LC-MS method adapted from the GSH protocol. Briefly, blood samples containing 1.70 were analysed separately by positive mode LC-MS using an Agilent 1100 series HPLC (Agilent Technology, Inc., Santa Clara, CA, USA) coupled with an Agilent 6530 Accurate Mass Q-TOF LC/MS (Agilent Technology, Inc., Santa Clara, CA, USA), which was equipped with a dual jet stream electrospray ionisation source. Chromatographic separation was achieved on a Zorbax SB C18 column (5 μm, 3 × 150 mm) maintained at 40 °C. […] The flow rate was set at 0.5 mL/min with an injection volume of 8 μL. Mass spectrometer settings were configured for m/z transitions of 319.1→215.2, with a fragmentor voltage of 180 V. The instrument parameters were as follows: a gas flow of 10 L/min, a gas temperature of 275 °C, a sheath gas flow of 12 L/min, a sheath gas temperature of 300 °C, a nebuliser pressure of 40 psi, a capillary voltage of 3000 V, and a nozzle voltage of 500 V. This method was developed and validated through triplicate linearity studies at concentrations ranging from 30 to 5000 ng/mL according to the International Conference on Harmonization (ICH) guidelines. Data were acquired and analysed using Agilent Mass Hunter Software (version A.02.17).

physchem = assay: physchem
Experimental: To investigate the potential peptide degradation during storage and when in a cell culture medium, the stability of GSH in NaOH (0.1 molL^−1, pH 13.0), HBSS (pH 7.4), and HCl (0.1 molL^−1, pH 1.0) were investigated. GSH (100 μgmL^−1) was incubated at 37 °C with the above conditions for 24 h or until at least 20% of peptide was degraded. The samples were withdrawn at the time intervals 0, 1, 10, 30, 60, 120, 240, 480, and 1440 min and mixed with equal volume of ice-cold HCl (0.2 molL^−1) until analysis by HPLC. Stability was repeated until three results within <5% SD were obtained.

in vitro = conditions: rat
Experimental: (§1) To investigate the GSH degradation against common enzymes of the GI tract, the degradation of GSH in the presence of pepsin, chymotrypsin, trypsin, aminopeptidase, GGT, jejunum luminal content, and mucosal homogenates obtained from the rats’ intestines were investigated. GSH (100 μgmL^−1) was incubated at 37 °C with the above enzymes or mixtures for 24 h. The sample was withdrawn at the time intervals of 0, 1, 10, 30, 60, 120, 240, 480, and 1440 min, which were then mixed with equal volume of ice-cold HCl (0.2 molL^−1) until analysis by HPLC. Enzymatic degradation was repeated until three results within <5% SD were obtained.

aminopeptidase = assay: in vitro; conditions: aminopeptidase solution
Experimental: as §1

chymotrypsin = chymotrypsin (Bos taurus, UniProt P00766); assay: in vitro; conditions: bovine, chymotrypsin solution
Experimental: as §1

pepsin = pepsin (Bos taurus, UniProt P00792); assay: in vitro; conditions: bovine, pepsin solution
Chain of pepsin (P00792 43-372): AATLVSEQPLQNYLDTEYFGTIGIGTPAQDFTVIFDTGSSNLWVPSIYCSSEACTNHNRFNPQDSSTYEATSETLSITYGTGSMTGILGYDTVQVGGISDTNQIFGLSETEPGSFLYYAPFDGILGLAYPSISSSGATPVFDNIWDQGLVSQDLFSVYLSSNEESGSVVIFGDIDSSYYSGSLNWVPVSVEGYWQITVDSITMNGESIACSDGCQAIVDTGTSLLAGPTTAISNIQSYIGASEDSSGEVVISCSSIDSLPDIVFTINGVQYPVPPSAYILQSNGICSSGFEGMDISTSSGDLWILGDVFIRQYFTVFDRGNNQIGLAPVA
Experimental: as §1

trypsin = trypsin (Bos taurus, UniProt P00760); assay: in vitro; conditions: bovine, trypsin solution
Chain of trypsin (P00760 24-246): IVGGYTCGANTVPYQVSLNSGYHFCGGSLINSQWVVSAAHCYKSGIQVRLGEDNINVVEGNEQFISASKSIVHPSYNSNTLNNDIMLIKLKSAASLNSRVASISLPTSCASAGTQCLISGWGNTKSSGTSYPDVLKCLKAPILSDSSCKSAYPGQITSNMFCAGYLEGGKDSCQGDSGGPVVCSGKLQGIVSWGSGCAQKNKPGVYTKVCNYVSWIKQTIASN
Experimental: as §1

[4] = tested on: γ-glutamyl transferase (GGT); assay: in vitro; conditions: horse, γ-glutamyl transferase (GGT) solution
Experimental: as §1

[5] = cited from earlier work
[6] = background statement in abstract, ref not given; cited from earlier work

| Structure (SMILES) | % Degradation by GGT [1] [%] | viability at 24 h, 0.0325 mmolL^−1 [2] [%] | fold increase in oral bioavailability compared to native GSH ([3]; Sprague Dawley rats) [fold] | fold increase in plasma t½ compared to native GSH ([3]; Sprague Dawley rats) [fold] | AUC ([3]; IV) [ng·h/mL] | AUC ([3]; oral) [ng·h/mL] | bioavailability [3] [%] | half-life ([3]; Sprague Dawley rats) [h] | half-life at 100 μgmL^−1 (physchem; HBSS buffer, pH 7.4) [h] | half-life at 100 μgmL^−1 (physchem; aqueous HCl solution, pH 2) [h] | half-life at 100 μgmL^−1 (physchem; aqueous NaOH solution, pH 12) [h] | half-life at 100 μgmL^−1 (in vitro; jejunum luminal contents) [h] | half-life at 100 μgmL^−1 (in vitro; jejunum mucosal homogenates) [h] | half-life at 100 μgmL^−1 (aminopeptidase) [h] | half-life at 100 μgmL^−1 (chymotrypsin) [h] | half-life at 100 μgmL^−1 (pepsin) [h] | half-life at 100 μgmL^−1 (trypsin) [h] | half-life at 100 μgmL^−1 [4] [h] | water solubility [5] [mg/mL] | oral bioavailability [6] |
| --- | --- | --- | --- | --- | --- | --- | --- | --- | --- | --- | --- | --- | --- | --- | --- | --- | --- | --- | --- | --- |
| CN(C(=O)CC[C@H](N)C(=O)O)[C@@H](CS)C(=O)NCC(=O)O [Compound 1.70] | 11.7 | 108 ± 9.4 | 16.1 | 16.8 | 727 ± 42 | 82 ± 8 | 11.3 ± 1.2 | 0.56 |  |  |  |  |  |  |  |  |  |  |  |  |
| N[C@@H](CCC(=O)N[C@@H](CS)C(=O)NCC(=O)O)C(=O)O [GSH, Glutathione] |  |  |  |  | 5350 ± 2480 | 36 ± 8 | 0.7 ± 0.1 | 0.0333 | 46.3 ± 2.3 | 203 ± 10.1 | 2.5 ± 0.1 | 30.5 ± 1.5 | 9.4 ± 2 | 18.9 ± 0.9 | 4.6 ± 0.2 | 31.4 ± 1.6 | 5.8 ± 0.3 | 0.7 ± 0.03 | 292.5 (≈ 952 mM) | below 1% |
